Data published in patent US8227434B1, “Materials and methods for treating oncological disorders” (H. Lee Moffitt Cancer Center & Research Institute, Inc., priority 2003, dated 2012).

Legend:
LR5 cell line = LR5 cell line (Bellamy et al., 1991); cited from earlier work
8226/LR5 cell line = assay: Alkaline comet assay of melphalan induced DNA crosslinks; type: cell-based, human; details: 2 h, FIG. 3A
Protocol: (§1) The alkaline comet assay was used to detect melphalan induced DNA crosslinks in 8226 myeloma cells. Cells cultured in suspension or adhered to FN were treated with varying doses of melphalan or vehicle control for two hours. Following drug treatment, single strand breaks were induced, by irradiating appropriate samples at 900 rads (MARK I model 68A irradiator). After drug treatment and irradiation, 5,000 cells were placed in a microcentrifuge tube containing 1 ml cold PBS, and the alkaline comet assay was performed as described by Kent et al. (1995). Fifty images were randomly captured per slide, and images by fluorescence microscopy were quantified using Optimus^R software as previously described (Hazlehurst et al., 2001; Kent et al., 1995).
(§2) The percent crosslinking was calculated as follows:
(§3) The data shown are the means of three independent experiments (n=50 images for each dose of each independent experiment). An analysis of variance (ANOVA) model was used to quantify the relationship between the response variable and the two independent variables.

[1] = test system: 8226 cells adhered to FN (8226/FN); assay: as above; type: cell-based, human; details: 2 h, FIG. 3B
Protocol: as §1, §2, §3

[2] = test system: 8226 cells in suspension (8226/SUS); assay: as above; type: cell-based, human; details: 2 h
Protocol: as §1, §2, §3

8226 cells [3] = assay: Cell-cycle analysis (BrDU/PI flow cytometry); type: cell-based, human; details: 48 h post 10 μM melphalan, 2 hour treatment
Protocol: (§4) To check the melphalan effect on cell cycle progressing, 8226 and LR5 were treated with 10 μM, 25 μM and 50 μM of melphalan and collected at 24 h and 48 h. Cells were then fixed with 70% EtOH at 4° C. overnight; and resuspended with 500 μl of PBS containing 25 μg/ml propidium Iodide (PI) (Sigma, St. Louis, Mo.) and 1.25 mg/ml Rnase A (Invetrogen) and incubated at 37° C. for 30 minutes in the dark. BrDU/PI staining was done as described (Hazlehurst et al., 2000). Briefly, within various of time post-drug treatment, cells were treated with 10 μM Bromodeoxyuridine (BrDU) at 37° C. for 30 mins, fixed in 70% ethanol., denatured (2MHCl) and neutralized (0.1M sodium borate). Cell were stained with anti-BrDU FITC antibody (BD, Phamingen), then resuspended with 500 μl of PBS containing 25 μg/ml propidium Iodide (PI) (Sigma, St. Louis, Mo.) and 1.25 mg/ml Rnase A (Invetrogen) and incubated at 37° C. for 30 mins in the dark. Nuclear staining was analyzed on a FACScan flow cytometer (Becton Dickinson, San Jose, Calif.). Watson (Pragmatic) from FlowJo 4.4.4 was used for DNA content analysis.

LR5 cells = assay: Cell-cycle analysis (BrDU/PI flow cytometry); type: cell-based, human; details: 48 h post 10 μM melphalan, 2 hour treatment
Protocol: as §4

8226/LR5 cells = assay: Alkaline comet assay, ICL formation and removal; type: cell-based, human; details: within 17 hours after maximum ICL formation; 2 h exposure to 50 μM melphalan
Protocol: (§5) The alkaline comet assay was used to detect melphalan induced DNA crosslinks in 8226 and 8226/LR5 myeloma cells (Hazlehurst et al., 2003). To examine the dose response, 2×10^5 cells were treated with 25 μM. 50 μM and 100 μM melphalan or vehicle control for two hours, washed in PBS and cultured in drug-free medium for another three hours culture. After drug treatment, samples were irradiated at 900 rads (MARK I model 68A irradiator). The alkaline comet assay was performed according to the manufacturer's instructions (Travegene). Fifty images per slide were randomly captured by fluorescence microscopy and images were quantified using LAI comet analysis software (Loats Associates, Inc. Westminster, Md.). The percent crosslinking was calculated as follows: Relative crosslinking=(1-(Comet moment drug treated-comet moment control/comet moment 900 rads-comet moment control))×100. To examine the ICL formation and removal, 8226 and LR5 were incubated in 25 μM or 50 μM melphalan and vehicle control, respectively for 2 hours after which they were cultured in drug free medium for various times. Cells were collected at 0 h, 3 h, 8 h and 23 h after 2 h drug treatment to perform the comet assay. […] An analysis of variance (ANOVA) model was used to quantify the relationship between the response variable and the two independent variables.

8226 cells [4] = assay: Alkaline comet assay, ICL formation and removal; type: cell-based, human; details: within 17 hours after maximum ICL formation; 2 h exposure to 25 μM melphalan
Protocol: as §5

[5] = test system: plasma cells from bone marrow aspirates of myeloma patients; assay: Melphalan-induced apoptosis of patient specimens (TUNEL, kappa/lambda staining); type: cell-based, human; details: 10 patient specimens
Excerpt: To determine if CAM-DR occurred in patient specimens as well as myeloma cell lines, a double immunofluorescent assay was developed to simultaneously detect apoptotic plasma cells. After obtaining IRB approved consent, mononuclear cells from bone marrow aspirates obtained from patients with stage II and III myeloma were isolated by ficol-hypaque centrifugation and placed in αMEM media. One million cells/ml were adhered to FN or placed in suspension (0.1% poly-hema coated wells) for 2 hrs in serum free αMEM media. Following two hours of adhesion, fresh media with 15% FBS was added and cells were incubated for an additional 12-16 hrs. Following adhesion overnight, cells were treated with 200 uM melphalan for two hours and extracellular drug was removed and maintained in drug free media for an additional 24 hrs prior to fixation. Plasma cells were identified by either positive kappa or lambda staining (Vector laboratories, Burlingame, Calif.) and apoptotic plasma cells were identified by TUNEL analysis labeling using a commercially available kit (Intergen company, Purchase, N.Y., Cat. S7110). Fluorescence microscopy (Vysis, Downers Grove, Ill.) was used to count 500 total plasma cells per slide. Results following cell adhesion were compared to mononuclear cells exposed to melphalan in suspension culture.

Structure (SMILES)	effect on resistance to melphalan (LR5 cell line)	percent crosslinking, 8226/LR5 Mean (SE) (8226/LR5 cell line; 25 uM melphalan)	percent crosslinking, 8226/LR5 Mean (SE) (8226/LR5 cell line; 50 uM melphalan)	percent crosslinking, 8226/LR5 Mean (SE) (8226/LR5 cell line; 100 uM melphalan)	percent crosslinking, 8226/FN Mean (SE) ([1]; 25 uM melphalan)	percent crosslinking, 8226/FN Mean (SE) ([1]; 50 uM melphalan)	percent crosslinking, 8226/FN Mean (SE) ([1]; 100 uM melphalan)	percent crosslinking, 8226/SUS Mean (SE) ([2]; 25 uM melphalan, FIG. 3A)	percent crosslinking, 8226/SUS Mean (SE) ([2]; 25 uM melphalan, FIG. 3B)	percent crosslinking, 8226/SUS Mean (SE) ([2]; 50 uM melphalan, FIG. 3B)	percent crosslinking, 8226/SUS Mean (SE) ([2]; 100 uM melphalan, FIG. 3A)	percent crosslinking, 8226/SUS Mean (SE) ([2]; 100 uM melphalan, FIG. 3B)	cell cycle effect (8226 cells [3])	cell cycle effect (LR5 cells)	ICL removed (8226/LR5 cells) [%]	removal of ICL (8226 cells [4])	mean percent apoptosis of plasma cells ([5]; adhered to FN prior to treatment with 200 uM melphalan) [%]	mean percent apoptosis of plasma cells ([5]; maintained in cell suspension, 200 uM melphalan) [%]
CCCCS(=N)(=O)CCC(N)C(=O)O (stereo not drawn) [buthionine sulfoximine]	partially reversed resistance to melphalan	–	–	–	–	–	–	–	–	–	–	–	–	–	–	–	–	–
N[C@@H](Cc1ccc(N(CCCl)CCCl)cc1)C(=O)O [melphalan, Melphalan]	–	−4.49 (16.687) %	14.02 (8.648) %	47.32 (9.121) %	29.11 (0.888) %	47.73 (2.141) %	72.03 (2.09) %	20.31 (9.579) %	22.40 (9.458) %	46.27 (5.850) %	67.31 (4.110) %	70.67 (6.175) %	arrested in G2/M phase	continue cell cycle progression	40	no significant removal of ICL	27.7	55.6
